Our source for the EC50, Emax and Ki values is patent publication US20230265151A1, “GIP/GLP1 CO-AGONIST COMPOUNDS” (priority 2020, published 2023).

One experiment concerns the target hGLP-1R (Homo sapiens, UniProt P43220). The experiment can be described thus: Functional cAMP formation (HTRF) in HEK-293 clonal cells expressing hGLP-1R, 0.1% bovine casein, without or with 1.0% human serum albumin. The experiment is classed as cell-based. Also noted: expressed in transfected cells. As to conditions: for EC50: geometric mean, read-out: hGLP-1R EC50, nM (SEM, n); for Emax: read-out: hGLP-1R Emax, % ± SEM. Summed up:
(§1)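 Cells were stimulated with peptide for 30 min at 37° C, then intracellular cAMP was measured by competitive HTRF (665/620 nm ratio) and converted to nM using a cAMP standard curve. Relative EC50 and Emax came from four-parameter logistic fits of percent maximal response against peptide concentration.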

The target of experiment [1] is T1, human GLP-1 receptor (hGLP-1R) (Homo sapiens, UniProt P43220).
T1 construct: expressed in transfected cells; crude membranes
T1 sequence (P43220 24-463): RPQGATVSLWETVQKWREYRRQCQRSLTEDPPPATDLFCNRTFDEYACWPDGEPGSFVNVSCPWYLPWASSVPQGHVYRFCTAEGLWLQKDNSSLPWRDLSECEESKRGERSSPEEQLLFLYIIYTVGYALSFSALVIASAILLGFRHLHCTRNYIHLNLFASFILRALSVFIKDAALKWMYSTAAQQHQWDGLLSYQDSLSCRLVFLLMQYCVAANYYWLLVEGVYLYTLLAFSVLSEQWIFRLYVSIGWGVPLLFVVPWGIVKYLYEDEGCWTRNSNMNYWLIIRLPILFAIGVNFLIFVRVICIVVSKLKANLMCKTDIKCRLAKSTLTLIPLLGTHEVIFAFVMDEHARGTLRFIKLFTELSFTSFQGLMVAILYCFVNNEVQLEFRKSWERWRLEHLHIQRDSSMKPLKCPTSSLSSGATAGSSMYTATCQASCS
The experiment can be described thus: [125I]-GLP-1 binding, SPA with membranes of HEK293 cells expressing hGLP-1R. The conditions noted are these: human GLP-1R; geometric mean (SEM, n); read-out: Binding Affinity Ki, nM (SEM, n) hGLP-1R.

The next experiment deals with T2, hGIPR (Homo sapiens, UniProt P48546).
T2 construct: expressed in transfected cells
T2 sequence (P48546 22-466): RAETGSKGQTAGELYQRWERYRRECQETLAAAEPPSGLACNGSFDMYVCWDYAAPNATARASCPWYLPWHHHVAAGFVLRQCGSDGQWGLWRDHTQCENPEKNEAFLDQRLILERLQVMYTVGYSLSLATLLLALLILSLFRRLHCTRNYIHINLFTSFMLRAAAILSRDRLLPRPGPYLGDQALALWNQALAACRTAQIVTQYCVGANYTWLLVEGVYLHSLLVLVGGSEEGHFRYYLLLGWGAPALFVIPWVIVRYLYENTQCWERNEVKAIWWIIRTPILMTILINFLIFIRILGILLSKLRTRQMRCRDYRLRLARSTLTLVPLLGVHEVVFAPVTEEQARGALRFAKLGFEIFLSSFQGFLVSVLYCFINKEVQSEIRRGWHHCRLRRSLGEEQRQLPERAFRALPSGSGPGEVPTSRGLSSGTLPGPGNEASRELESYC
The experiment can be described thus: Functional cAMP formation (HTRF) in HEK-293 clonal cells expressing hGIPR, 0.1% bovine casein, without or with 1.0% human serum albumin. The experiment is classed as cell-based. As to conditions: for EC50: geometric mean, read-out: hGIPR EC50, nM (SEM, n); for Emax: percent of maximal response to GIP(1-42)NH2, read-out: hGIPR Emax, % ± SEM. A digest of the protocol: as §1

The next experiment deals with T3, hGCGR (Homo sapiens, UniProt P47871).
T3 construct: expressed in transfected cells
T3 sequence (P47871 26-477): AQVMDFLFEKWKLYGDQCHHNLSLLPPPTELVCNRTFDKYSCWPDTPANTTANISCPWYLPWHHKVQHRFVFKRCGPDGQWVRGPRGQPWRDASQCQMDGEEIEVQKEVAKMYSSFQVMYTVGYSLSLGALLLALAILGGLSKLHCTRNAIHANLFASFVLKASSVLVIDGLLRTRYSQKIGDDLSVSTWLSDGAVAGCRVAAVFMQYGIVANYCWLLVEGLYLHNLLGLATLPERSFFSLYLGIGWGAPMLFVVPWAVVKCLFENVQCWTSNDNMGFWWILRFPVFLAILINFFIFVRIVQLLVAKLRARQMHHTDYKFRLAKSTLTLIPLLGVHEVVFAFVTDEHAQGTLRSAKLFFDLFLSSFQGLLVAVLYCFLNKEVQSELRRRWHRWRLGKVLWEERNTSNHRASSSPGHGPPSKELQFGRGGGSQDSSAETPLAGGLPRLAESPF
Briefly: Functional cAMP formation (HTRF) in HEK-293 clonal cells expressing hGCGR, 0.1% bovine casein, without or with 1.0% human serum albumin. It counts as cell-based. As to conditions: read-out: hGCGR EC50, nM (SEM, n). A digest of the protocol: as §1
(In general: Changes in cAMP serve as a functional read-out for many G protein-coupled receptors.)

Where [2] appears, read: 0.1% bovine casein and 1.0% human serum albumin, 37° C.
Where [3] appears, read: HEK293, 0.1% bovine casein and 1.0% human serum albumin, 37° C.
The mark [4] stands for this setting: 0.1% bovine casein and 1.0% human serum albumin, 37° C., geometric mean.
[5] abbreviates: cAMP, incubated at 37° C., 0.1% bovine casein (no human serum albumin), geometric mean.
Setting [6] is: cAMP, incubated at 37° C., 0.1% bovine casein (no human serum albumin).
The mark [7] stands for this setting: cAMP, 37° C., 0.1% bovine casein (no human serum albumin).

Read-outs that look alike come from different tables or passages of the source.

Sequence of hGLP-1R (P43220 24-463): as the sequence (P43220 24-463) above

As usually defined, the EC50 is the concentration that produces a half-maximal response. The term Emax denotes the maximal effect, on the per cent scale that the assay sets. For orientation: Ki means the dissociation constant of the complex between target and ligand, obtained from inhibition or displacement. Take `CCCCCCCCCCCCCCCC(=O)N[C@@H](CCC(=O)NCCOCCOCC(=O)NCCOCCOCC(=O)NCCCC[C@H](NC(=O)[C@H](CCCN)NC(=O)[C@H](CC(=O)O)NC(=O)[C@H](CC(C)C)NC(=O)[C@](C)(CC(C)C)NC(=O)[C@@H](NC(=O)[C@H](CO)NC(=O)[C@H](CCCCNC(=O)COCCOCCNC(=O)COCCOCCNC(=O)CC[C@H](NC(=O)CCCCCCCCCCCCCCC)C(=O)O)NC(=O)[C@H](CC(=O)O)NC(=O)[C@H](CO)NC(=O)[C@@H](NC(=O)[C@](C)(Cc1ccccc1F)NC(=O)[C@@H](NC(=O)CNC(=O)[C@H](CCC(=O)O)NC(=O)C(C)(C)NC(=O)[C@@H](N)Cc1ccc(O)cc1)[C@@H](C)O)[C@@H](C)O)[C@@H](C)CC)C(=O)N[C@@H](C)C(=O)N[C@@H](CCC(N)=O)C(=O)NC(C)(C)C(=O)N[C@@H](CCC(=O)O)C(=O)N[C@@H](Cc1ccccc1)C(=O)N[C@H](C(=O)N[C@H](CCC(=O)O)C(=O)N[C@@](C)(Cc1ccc(O)cc1)C(=O)N[C@@H](CC(C)C)C(=O)N[C@H](C(=O)N[C@@H](CCC(=O)O)C(=O)NCC(=O)NCC(=O)N1CCC[C@H]1C(=O)N[C@@H](CO)C(=O)N[C@@H](CO)C(=O)NCC(=O)N[C@@H](C)C(=O)N1CCC[C@H]1C(=O)N1CCC[C@H]1C(=O)N1CCC[C@H]1C(=O)N[C@@H](CO)C(N)=O)[C@@H](C)CC)[C@@H](C)CC)C(=O)O` [Example 29]: the EC50 is 0.876 nM on hGLP-1R (setting [2]), 0.472 nM on hGIPR (setting [2]), greater than 9950 nM on hGCGR (setting [4]) and greater than 9950 nM on hGCGR (setting [5]). In addition, the maximum response (Emax) was 100 ± 6.65% on hGLP-1R (HEK293, percent of maximal response to GLP-1(7-36)NH2, 37° C., 0.1% bovine casein, arithmetic mean) and 96.9 ± 5.32% on hGIPR (setting [3]). In addition, in experiment [1], the Ki was determined as 0.412 nM.
Turning to `CCCCCCCCCCCC(=O)N[C@@H](CCC(=O)NCCOCCOCC(=O)NCCOCCOCC(=O)NCCCC[C@H](NC(=O)[C@H](CCCN)NC(=O)[C@H](CC(=O)O)NC(=O)[C@H](CC(C)C)NC(=O)[C@](C)(CC(C)C)NC(=O)[C@@H](NC(=O)[C@H](CO)NC(=O)[C@H](Cc1ccncc1)NC(=O)[C@H](CC(=O)O)NC(=O)[C@H](CO)NC(=O)[C@@H](NC(=O)[C@](C)(Cc1ccccc1F)NC(=O)[C@@H](NC(=O)CNC(=O)[C@H](CCC(=O)O)NC(=O)C(C)(C)NC(=O)[C@@H](N)Cc1ccc(O)cc1)[C@@H](C)O)[C@@H](C)O)[C@@H](C)CC)C(=O)N[C@@H](C)C(=O)N[C@@H](CCC(N)=O)C(=O)NC(C)(C)C(=O)N[C@@H](CCCCNC(=O)COCCOCCNC(=O)COCCOCCNC(=O)CC[C@H](NC(=O)CCCCCCCCCCC)C(=O)O)C(=O)N[C@@H](Cc1ccccc1)C(=O)N[C@H](C(=O)N[C@H](CCC(=O)O)C(=O)N[C@@](C)(Cc1ccc(O)cc1)C(=O)N[C@@H](CC(C)C)C(=O)N[C@H](C(=O)N[C@@H](CCC(=O)O)C(=O)NCC(=O)NCC(=O)N1CCC[C@H]1C(=O)N[C@@H](CO)C(=O)N[C@@H](CO)C(=O)NCC(=O)N[C@@H](C)C(=O)N1CCC[C@H]1C(=O)N1CCC[C@H]1C(=O)N1CCC[C@H]1C(=O)N[C@@H](CO)C(N)=O)[C@@H](C)CC)[C@@H](C)CC)C(=O)O` [Example 137], the EC50 on hGLP-1R (setting [2]) was 5.02 nM; on hGLP-1R (setting [6]) it was 0.134 nM; on hGIPR (setting [2]) it was 0.728 nM; at hGIPR (setting [6]), 0.0116 nM; at hGCGR (setting [4]), greater than 9950 nM; at hGCGR (setting [5]), greater than 9950 nM. Besides, in experiment [1], the Ki was 0.25 nM. In addition, the maximal response (Emax) on hGIPR (setting [3]) came to 90.3 ± 0.387%.
Take `CCCCCCCCCCCC(=O)N[C@@H](CCC(=O)NCCOCCOCC(=O)NCCOCCOCC(=O)NCCOCCOCC(=O)NCCCC[C@H](NC(=O)[C@H](CO)NC(=O)[C@@H]1CCCN1C(=O)[C@@H]1CCCN1C(=O)[C@@H]1CCCN1C(=O)[C@H](C)NC(=O)CNC(=O)[C@H](CO)NC(=O)[C@H](CO)NC(=O)[C@@H]1CCCN1C(=O)CNC(=O)CNC(=O)[C@H](CCC(=O)O)NC(=O)[C@@H](NC(=O)[C@H](CC(C)C)NC(=O)[C@](C)(Cc1ccc(O)cc1)NC(=O)[C@@H](CCC(=O)O)NC(=O)[C@@H](NC(=O)[C@H](Cc1ccccc1)NC(=O)[C@H](CCCN)NC(=O)C(C)(C)NC(=O)[C@H](CCC(N)=O)NC(=O)[C@H](C)NC(=O)[C@H](CCCCNC(=O)COCCOCCNC(=O)COCCOCCNC(=O)COCCOCCNC(=O)CC[C@H](NC(=O)CCCCCCCCCCC)C(=O)O)NC(=O)[C@H](CCCN)NC(=O)[C@H](CC(=O)O)NC(=O)[C@H](CC(C)C)NC(=O)[C@](C)(CC(C)C)NC(=O)[C@@H](NC(=O)C(C)(C)NC(=O)[C@H](Cc1ccncc1)NC(=O)[C@H](CC(=O)O)NC(=O)[C@H](CO)NC(=O)[C@@H](NC(=O)[C@](C)(Cc1ccccc1F)NC(=O)[C@@H](NC(=O)CNC(=O)[C@H](CCC(=O)O)NC(=O)C(C)(C)NC(=O)[C@@H](N)Cc1ccc(O)cc1)[C@@H](C)O)[C@@H](C)O)[C@@H](C)CC)[C@@H](C)CC)[C@@H](C)CC)C(N)=O)C(=O)O` [Example 435]: the Emax was 97.8% at hGLP-1R (HEK293, cAMP, 37° C., 0.1% bovine casein and 1.0% human serum albumin, percent of maximal response to GLP-1(7-36)NH2); 111% at hGLP-1R (HEK293, cAMP, 37° C., 0.1% bovine casein, percent of maximal response to GLP-1(7-36)NH2, arithmetic mean); 98.7% at hGIPR (HEK293, cAMP, 37° C., 0.1% bovine casein and 1.0% human serum albumin). Further, the EC50 on hGLP-1R (setting [7]) was 0.0527 nM; at hGIPR (setting [7]), 0.00517 nM; on hGCGR (cAMP, 37° C., 0.1% bovine casein (no human serum albumin), geometric mean), greater than 9950 nM; on hGCGR (cAMP, 37° C., 0.1% bovine casein and 1.0% human serum albumin, geometric mean (SEM, n)), greater than 9950 nM. Further, the Ki in experiment [1] worked out at 0.122 nM.
